According to article PMC9579956 (RSC Medicinal Chemistry, 2022):

Experiments:
[1] = biological target: T1, Mycobacterium thermoresistible (Mtr) LpqY (Mycolicibacterium thermoresistibile, UniProt G7CES0); type: binding; conditions: single dose MST screen against LpqY
[2] = biological target: T1, Mycobacterium thermoresistible (Mtr) LpqY; type: binding

T1 sequence (G7CES0 29-471): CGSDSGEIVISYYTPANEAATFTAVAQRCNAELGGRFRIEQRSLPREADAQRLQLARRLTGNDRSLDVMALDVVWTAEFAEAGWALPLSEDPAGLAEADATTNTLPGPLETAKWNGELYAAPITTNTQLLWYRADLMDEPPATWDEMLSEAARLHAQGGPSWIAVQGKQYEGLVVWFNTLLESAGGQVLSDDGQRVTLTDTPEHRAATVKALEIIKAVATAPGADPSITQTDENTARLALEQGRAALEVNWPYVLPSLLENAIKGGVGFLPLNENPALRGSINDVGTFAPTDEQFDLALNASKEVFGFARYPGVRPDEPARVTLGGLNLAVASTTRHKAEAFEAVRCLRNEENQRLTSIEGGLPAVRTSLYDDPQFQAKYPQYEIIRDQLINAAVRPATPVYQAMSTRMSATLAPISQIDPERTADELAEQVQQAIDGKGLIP

Row | Compound | Pathogen Box screen signal/noise ratio [1] | also measured
1 | O=[N+]([O-])c1cn2c(n1)OC[C@@H](OCc1ccc(OC(F)(F)F)cc1)C2 [MMV688755] | 0.4 | –
2 | CC(=O)NC[C@H]1CN(c2ccc(N3CCSCC3)c(F)c2)C(=O)O1 [MMV688756] | 1.1 | –
3 | CS(=O)(=O)c1ccc(C(=O)N(CC2CCCO2)c2nc3ccccc3s2)cc1[N+](=O)[O-] (centres unmarked) [MMV688761] | 0.6 | –
4 | c1ccc(-c2[nH]c3ccccc3c2C(c2ccccn2)N2CCCC2)cc1 (centres unmarked) [MMV688762] | 0.9 | –
5 | CNc1nnc(Sc2cnn(-c3ccccc3)c(=O)c2Cl)s1 [MMV688763] | 4.7 | –
6 | COc1ccc(-c2onc(C(F)(F)F)c2-c2ccc(Cl)cc2)c(O)c1 [MMV688766] | 0.9 | –
7 | Cc1[nH]c2ccccc2c1C(c1cccs1)N1CCN(C)CC1 (centres unmarked) [MMV688768] | 2.1 | –
8 | Cc1ccccc1C(=O)N1N=C(Nc2ccccc2)SC1(C)C [MMV688771] | 0.4 | –
9 | O=C(Cn1ccnc1[N+](=O)[O-])NCc1ccccc1 [MMV688773] | 2.9 | –
10 | CC[C@@H]([C@H](C)O)n1ncn(-c2ccc(N3CCN(c4ccc(OC[C@@H]5CO[C@@](Cn6cncn6)(c6ccc(F)cc6F)C5)cc4)CC3)cc2)c1=O [MMV688774] | 3.4 | –
11 | CO[C@H]1/C=C/O[C@@]2(C)Oc3c(C)c(O)c4c(O)c(/c(=C/NN5CCN(C)CC5)c(O)c4c3C2=O)=N\C(=O)/C(C)=C\C=C/[C@H](C)[C@H](O)[C@@H](C)[C@@H](O)[C@@H](C)[C@H](OC(C)=O)[C@@H]1C [MMV688775] | 1.1 | –
12 | Cc1nn2c(=O)c3c([nH]c2c1-c1ccc(Cl)cc1)CCCC3 [MMV688776] | 1.5 | –
13 | Cc1cccnc1NC(=O)c1cccc(OCc2c(C)noc2C)c1 [MMV688793] | 0.4 | –
14 | O=C(NCCc1ccn(-c2ccccc2)n1)C1CCCCC1 [MMV688795] | 0.0455 | –
15 | O=C(NCc1nnc2n1CCCCC2)c1ccc(-c2ccc(F)cc2)o1 [MMV688796] | 0.278 | –
16 | CC1CCCCN1C(=O)NCCc1coc(-c2ccc(F)cc2)n1 (centres unmarked) [MMV688797] | 1.4 | –
17 | COc1ccc2nccc(NC(=O)C3CCN(CCc4ccc(Cl)cc4)CC3)c2n1 [MMV688844] | 0.7 | –
18 | O=C(N[C@H](Cc1ccccc1)C(=O)Nc1ccccc1N1CCOCC1)c1cccs1 [MMV688845] | 1.6 | –
19 | Cc1ccccc1CN1CCC(O)(c2ccc(Cl)c(C(F)(F)F)c2)CC1 [MMV688846] | 0.25 | –
20 | CC(C)(C)n1nc(Cc2ccc(F)c(Cl)c2)c2c(N)ncnc21 [MMV688852] | 0.7 | –
21 | CCOc1ccc2cc(-c3nn(C(C)(C)C)c(N)c3C(N)=O)cnc2c1 [MMV688853] | 3.8 | –
22 | CCOc1ccc2cc(-c3nn(CC4CCN(C)CC4)c4ncnc(N)c34)ccc2c1 [MMV688854] | 1.2 | –

Row | Compound | Pathogen Box screen signal/noise ratio [1] | also measured
23 | CN1CCN(c2cc(-c3ccc(F)cc3)nc(-c3ccncc3)n2)CC1 [MMV688888] | 2.6 | –
24 | Clc1ccc(CCNc2cc(-c3ccccc3)nc3ncnn23)cc1 [MMV688889] | 3.0 | –
25 | COc1cc(Br)cc2cc(C(=O)Nc3cccc(C(F)(F)F)c3)c(=O)oc12 [MMV688891] | 0.646 | –
26 | OC[C@H]1O[C@@H](n2c3ccc(Cl)cc3c3c(-c4cc5ccccc5o4)ncnc32)C(O)[C@H]1O (some centres unmarked) [MMV688921] | 1.1 | –
27 | CCc1nn(C)c(C(=O)NCc2ccc(Oc3ccc(C)cc3)cc2)c1Cl [MMV688934] | 1.5 | –
28 | O=C(c1ccco1)N(CCCn1ccnc1)c1nc2c(Cl)cccc2s1 [MMV688936] | 1.4 | –
29 | CCOc1ccc(-c2nc(CNCCc3ccc(F)cc3)cs2)cc1 [MMV688938] | -0.25 | –
30 | Cc1ccc2nc(C)c(-c3ccn(Cc4ccccc4)n3)n2c1 [MMV688939] | -0.2 | –
31 | COc1cc(CN2CCC3(C=Cc4ccccc43)CC2)cc2c1OCO2 [MMV688941] | 0.5 | –
32 | CC(C)(C)C(O)C(Oc1ccc(-c2ccccc2)cc1)n1cncn1 (centres unmarked) [MMV688942] | 0.451 | –
33 | CC1COC(Cn2cncn2)(c2ccc(Oc3ccc(Cl)cc3)cc2Cl)O1 (centres unmarked) [MMV688943] | 0.75 | –
34 | Cc1cc(NC(=O)c2ccc(Oc3ccc(Cl)cc3O)o2)no1 [MMV688955] | 0.4 | –
35 | CC(=O)OC[C@H]1O[C@@H]([S-])[C@H](OC(C)=O)[C@@H](OC(C)=O)[C@@H]1OC(C)=O.CC[PH+](CC)CC.[Au] [MMV688978] | 0.85 | –
36 | CCc1cc(=O)n(C)c(SC(C)C(=O)Nc2ccc(F)cc2)n1 (centres unmarked) [MMV688980] | 1.3 | –
37 | CCCCCCCCCCCCCCCCOP(=O)([O-])OCC[N+](C)(C)C [MMV688990] | 0.7 | –
38 | CNC1C(OC2C(OC3C(O)C(O)C(NC(=N)N)C(O)C3NC(=N)N)OC(C)C2(O)C=O)OC(CO)C(O)C1O (centres unmarked) [MMV688994] | 0.56 | –
39 | C[C@@H]1[C@H](O)[C@@H](C)/C=C/C=C/C=C/C=C/C=C/C=C/C=C/[C@H](O[C@@H]2O[C@H](C)[C@@H](O)[C@H](N)[C@@H]2O)C[C@@H]2O[C@](O)(C[C@@H](O)C[C@@H](O)[C@H](O)CC[C@@H](O)C[C@@H](O)CC(=O)O[C@H]1C)C[C@H](O)[C@H]2C(=O)O [MMV689000] | 1.1 | –
40 | Cc1ccc(S(=O)(=O)Nc2ccc(CN3CCN(C(=O)c4cccc(C#N)c4)CC3)cc2)cc1 [MMV689028] | -0.5 | –
41 | COc1ccc(S(=O)(=O)Nc2ccc(CN3CCN(C(=O)c4cccc(C#N)c4)CC3)cc2)cc1 [MMV689029] | 0.156 | –
42 | Clc1ccc(CN2CCN(C3=NCCN3)CC2)cc1Cl [MMV689060] | 0.464 | –
43 | CC(=O)Nc1ccc(-c2noc(CC3CCCN(Cc4cccc(F)c4C)C3)n2)cc1 (centres unmarked) [MMV689061] | 0.9 | –
44 | FC(F)(F)c1ccc(N(c2cccnc2)C2CCN(c3ccc(C(F)(F)F)cn3)CC2)cc1 [MMV689243] | 1.4 | –

Row | Compound | Pathogen Box screen signal/noise ratio [1] | also measured
45 | O=C([C@@H](c1ccc(Cl)cc1)c1cccnc1)N1CCN(c2ccc(C(F)(F)F)cc2)CC1 [MMV689244] | 1.8 | –
46 | Nc1ncnc2c1ncn2C[C@@H](O)[C@@H](O)C(=O)O [MMV689255] | 2.5 | –
47 | CC(c1cc(Cl)cc(Cl)c1)N(C)c1ncc2c(N)nc(N)nc2n1 (centres unmarked) [MMV689437] | 0.187 | –
48 | CC(C)(C)C1CCC(CC2=C(O)C(=O)c3ccccc3C2=O)CC1 (centres unmarked) [MMV689480] | 2.3 | –
49 | CNc1cc(C)nc(C2CN(C(=O)c3n[nH]c4ccccc34)CCO2)c1 (centres unmarked) [MMV689709] | 2.1 | –
50 | COc1nc2ccc(Br)cc2cc1[C@@H](c1ccccc1)[C@@](O)(CCN(C)C)c1cccc2ccccc12 [MMV689758] | 0.444 | –
51 | COc1ccc(C2=NN(C3CCCCCC3)C(=O)[C@@H]3CC=CC[C@H]23)cc1OCCCCOc1ccc(-c2nn[nH]n2)cc1 [MMV690027] | 0.9 | –
52 | COc1ccc(C2=NN(C3CCCCCC3)C(=O)C2(C)C)cc1OCCCCOc1ccc(-c2nn[nH]n2)cc1 [MMV690028] | 2.5 | –
53 | COc1ccc(Oc2ccc([C@@H](C)N(C)c3ncc4c(N)nc(N)nc4n3)cc2)cc1 [MMV690102] | 2.1 | –
54 | C[C@H](c1ccc2c(c1)CCCC2)N(C)c1ncc2c(N)nc(N)nc2n1 [MMV690103] | 1.5 | –
55 | CCc1ccc(C(NCc2nc(N)nc(N(C)C)n2)C(C)C)cc1 (centres unmarked) [MMV1019989] | 0.5 | –
56 | O=C(Nc1nc(-c2ccccn2)cs1)C1CC1c1ccccc1F (centres unmarked) [MMV1028806] | 0.225 | –
57 | CNC(=O)CNc1nc(-c2ccccn2)nc2scc(-c3ccccc3)c12 [MMV1029203] | 0.463 | –
58 | CCCn1c(NC(=O)c2ccc3ccccc3n2)nc2ccccc21 [MMV1030799] | 0.9 | –
59 | CCNC(=O)C(C)Nc1nc(-c2cccnc2)nc2sc(C)c(C)c12 (centres unmarked) [MMV1037162] | 1.2 | –
60 | Cc1ccc(-c2nc(CN(Cc3ccccn3)C(C)C)cs2)o1 [MMV1088520] | 0.0 | –
61 | COc1cccn2c(C(=O)N3CCCCC3)c(C(F)(F)F)nc12 [MMV1110498] | 1.5 | –
62 | Cc1cc(OCC(=O)Nc2ccc(C(C)C)cc2)n(C)c(=O)c1C#N [MMV1198433] | 1.0 | –
63 | CCOC(=O)c1noc(N)c1-c1ccccc1 [MMV1236379] | 1.2 | –
64 | OC[C@H]1O[C@H](O[C@H]2O[C@H](CO)[C@@H](O)[C@H](O)[C@H]2O)[C@H](O)[C@@H](O)[C@@H]1O [Trehalose, α-D-glucopyranosyl-α-D-glucopyranoside, reference compound] | – | Hit validation Binding score ([2]; MST re-evaluation of hits against LpqY): 8.3; Validation binding score (MST) ([2]; quadruplicate, new batch of LpqY): 8.3
